This is an account of results in PubChem BioAssay AID294 (DTP/NCI, 2004).

This test relates to MX-1 breast xenograft, nude mice, tumor weight change. The test can be described thus: NCI In Vivo Anticancer Drug Screen. Data for tumor model Human Mammary Carcinoma MX-1 Xenograft (subcutaneous) in NU/NU Swiss (nude) mice. The note with it: endpoint: optimum tumor weight change, higher = larger tumour. As for the experimental part: The antitumor activity of compounds was measured in mice bearing transplantable tumors. Survival or tumor size were measured and the results are expressed as the measurement made in the treated group (T) divided by the measurement made in the vehicle treated control group (C). The tumor model used in this assay is Human Mammary Carcinoma MX-1 Xenograft (subcutaneous) in NU/NU Swiss (nude) mice
(A xenograft is tissue or cells of one species grown in another, often human tumour cells in immunodeficient mice.)

[1] abbreviates: dose: 50.0 mg/kg/injection, schedule: Q04DX003 (ip), vehicle: Klucel (hydroxypropylcellulose) (HPC).
Where [2] appears, read: dose: 100.0 mg/kg/injection, schedule: Q04DX003 (ip), vehicle: Klucel (hydroxypropylcellulose) (HPC).

Several values for one entry are separate records, joined by “and”; a condition that tells them apart may be missing. Equal values may be shown once.

Consider `CN(C)c1nc(N(C)C)nc(N(C)C)n1`, for which the T/C was 59 % of control under setting [1]; 15 % of control (dose: 60.0 mg/kg/injection, schedule: Q01DX005 (ip), vehicle: Klucel (hydroxypropylcellulose) (HPC)); 42 % of control (dose: 60.0 mg/kg/injection, schedule: Q07DX005 (ip), vehicle: Klucel (hydroxypropylcellulose) (HPC)); 47 % of control under setting [2]; 1 % of control (dose: 120.0 mg/kg/injection, schedule: Q01DX005 (ip), vehicle: Klucel (hydroxypropylcellulose) (HPC)); -38 % of control (dose: 120.0 mg/kg/injection, schedule: Q04DX005 (ip), vehicle: Klucel (hydroxypropylcellulose) (HPC)). In addition, the T/C is 1 % of control (dose: 200.0 mg/kg/injection, schedule: Q04DX003 (ip), vehicle: Klucel (hydroxypropylcellulose) (HPC)) and -99 % of control (dose: 240.0 mg/kg/injection, schedule: Q07DX005 (ip), vehicle: Klucel (hydroxypropylcellulose) (HPC)).

For the compound `COC1C(O)CC(OC2CC(OC3CC(O[C@@H]4C(=O)c5c(cc6cc(OC7CC(OC8CC(O)C(O)C(C)O8)C(O)C(C)O7)c(C)c(O)c6c5O)C[C@H]4[C@H](OC)C(=O)[C@@H](O)[C@@H](C)O)OC(C)C3O)OC(C)C2O)OC1C` (stereo partly drawn), the T/C (dose: 0.75 mg/kg/injection, schedule: Q04DX003 (ip), vehicle: saline) is 90 % of control and 95 % of control.

With `Nc1nc(N)c2cc(CNc3ccc(C(=O)NC(CC(=O)O)CC(=O)O)cc3)ccc2n1`, the T/C by setting is: under setting [1], 75 % of control; under setting [2], 49 % of control.

Consider `N=C(N)SCc1c2ccccc2c(CSC(=N)N)c2ccccc12`, for which the T/C was 83 % of control (dose: 25.0 mg/kg/injection, schedule: Q04DX003 (ip), vehicle: suspension in saline) and 123 % of control (dose: 50.0 mg/kg/injection, schedule: Q04DX003 (ip), vehicle: suspension in saline).

As to `O=P1(NCCCl)OCCCN1CCCl` (stereo not drawn), the T/C by setting is: (dose: 25.0 mg/kg/injection, schedule: Q04DX003 (ip), vehicle: saline) 57 % of control; (dose: 50.0 mg/kg/injection, schedule: Q04DX003 (ip), vehicle: saline) 56 % of control.

In the case of `CN(CO)c1nc(N(C)CO)nc(N(C)CO)n1`, the T/C reads like this: (dose: 25.0 mg/kg/injection, schedule: Q01DX005 (ip), vehicle: saline) 3 % of control and 16 % of control; (dose: 25.0 mg/kg/injection, schedule: Q04DX005 (ip), vehicle: saline) 45 % of control and 58 % of control; (dose: 50.0 mg/kg/injection, schedule: Q01DX005 (ip), vehicle: saline) -7 % of control and 4 % of control; (dose: 100.0 mg/kg/injection, schedule: Q01DX005 (ip), vehicle: saline) -97 % of control and -91 % of control; (dose: 100.0 mg/kg/injection, schedule: Q07DX005 (ip), vehicle: saline) 24 % of control and 28 % of control; (dose: 200.0 mg/kg/injection, schedule: Q01DX005 (ip), vehicle: saline) -94 % of control. In addition, the T/C is, setting by setting: (dose: 200.0 mg/kg/injection, schedule: Q04DX005 (ip), vehicle: saline) -87 % of control and -82 % of control; (dose: 200.0 mg/kg/injection, schedule: Q07DX005 (ip), vehicle: saline) -96 % of control.
